These results are taken from patent US12006294B2, “Therapeutic compounds” (REGENTS OF THE UNIVERSITY OF MINNESOTA, priority 2017, dated 2024).

The test system of the assay is Hela Cells. Description: Cellular ER stress model (tunicamycin, WST-8 cell viability). (Tetrazolium assays rely on reduction of a dye to a coloured formazan, in cell work by metabolically active cells.)
The mark [1] stands for this setting: Homo sapiens, HeLa, 48 h, read-out: % Cell Survival Cmpd(2.5 μM) + Tuni, Hela cells, compound 2.5 μM + tunicamycin, WST-8 viability 48 hours after tunicamycin treatment.
Setting [2] is: Homo sapiens, HeLa, 48 h, read-out: Compounds ERS (vs Tn), ERS activity vs Tuni = % cell survival (compound)/% cell survival (tunicamycin), compound 2.5 μM.

Where a name gives a salt, the structure may show the parent alone. Read-outs that look alike come from different tables or passages of the source.

As for `Cc1[nH]c(N/N=C/c2cccc(Cl)c2Cl)nc(=O)c1C` [JM3-195-2, (E)-2-(2-(2,3-dichlorobenzylidene)hydrazinyl)-5,6-dimethylpyrimidin-4(1H)-one], the viability at 2.5 µM came out at 29.7% under setting [1] and 128% under setting [2].

With `N=C(N)N/N=C/c1ccc(-c2ccccc2)cc1Cl` [JM3-63-2, (E)-2-((3-chloro-[1,1′-biphenyl]-4-yl)methylene)hydrazine-1-carboximidamide acetate], the viability at 2.5 µM is 15.9% under setting [1] and 60% under setting [2].

For `N=C(N)NNCc1c(Cl)cccc1Cl` [JM2-185-2], the viability at 2.5 µM by setting is: under setting [1], 31.7%; under setting [2], 100%.

In the case of `Nc1ccnn1-c1c(Cl)cccc1Cl` [JM1-217-2, 1-(2,6-dichlorophenyl)-1H-pyrazol-5-amine], the viability at 2.5 µM by setting is: under setting [1], 40.6%; under setting [2], 97%.

Regarding `Cc1[nH]c(N/N=C/c2c(F)cccc2Cl)nc(=O)c1C` [JM3-207-2, (E)-2-(2-(2-chloro-6-fluorobenzylidene)hydrazinyl)-5,6-dimethylpyrimidin-4(1H)-one], the viability at 2.5 µM under setting [1] was determined as 23.1% and the viability at 2.5 µM under setting [2] turned out to be 120%.

In the case of `Clc1cccc(CC2=NCCN2)c1Cl` [JM3-179-2, 2-(2,3-dichlorobenzyl)-4,5-dihydro-1H-imidazole], the viability at 2.5 µM was 20.4% under setting [1] and 88% under setting [2].

As for `CN(C)C(=N)N/N=C/c1c(Cl)cccc1Cl` [JM2-289-2, (E)-2-(2,6-dichlorobenzylidene)-N,N-dimethylhydrazine-1-carboximidamide hydroiodide], the viability at 2.5 µM stood at 33.8% under setting [1] and 128% under setting [2].

Consider `N=C(N)N/N=C/c1ccccc1I` [JM3-183-2, (E)-2-(2-iodobenzylidene)hydrazine-1-carboximidamide acetate], for which the viability at 2.5 µM reads like this: under setting [1], 24.2%; under setting [2], 104%.

In the case of `Cc1[nH]c(N/N=C/c2c(Cl)cccc2Cl)nc(=O)c1C` [JM3-191-2, (E)-2-(2-(2,6-dichlorobenzylidene)hydrazinyl)-5,6-dimethylpyrimidin-4(1H)-one], the viability at 2.5 µM was 40.6% under setting [1] and 175% under setting [2].

Consider `Cc1[nH]c(N/N=C/c2ccc(Cl)c(Cl)c2)nc(=O)c1C` [JM3-209-2, (E)-2-(2-(3,4-dichlorobenzylidene)hydrazinyl)-5,6-dimethylpyrimidin-4(1H)-one], for which the viability at 2.5 µM is, setting by setting: under setting [1], 21.6%; under setting [2], 113%.

For the molecule `N=C(N)N/N=C/c1ccccc1[N+](=O)[O-]` [JM3-13-2, (E)-2-(2-nitrobenzylidene)hydrazine-1-carboximidamide acetate], the viability at 2.5 µM amounted to 27.4% under setting [1] and 104% under setting [2].

`NC(=S)N/N=C/c1c(F)cccc1Cl` [JM1-113-2, (E)-2-(2-chloro-6-fluorobenzylidene)hydrazine-1-carbothioamide]: the viability at 2.5 µM turned out to be 27.6% under setting [1] and 40% under setting [2].

In the case of `N=C(N)N/N=C/c1c(C(F)(F)F)cccc1C(F)(F)F` [JM3-141-2, (E)-2-(2,6-bis(trifluoromethyl)benzylidene)hydrazine-1-carboximidamide acetate], the viability at 2.5 µM runs as follows: under setting [1], 19.6%; under setting [2], 86%.

For the molecule `N=C(N)N/N=C/c1ccc(Br)cc1Cl` [JM3-57-2, (E)-2-(4-bromo-2-chlorobenzylidene)hydrazine-1-carboximidamide acetate], the viability at 2.5 µM is 28.1% under setting [1] and 107% under setting [2].

On to `FC(F)(F)c1cccc(Cl)c1/C=N/NC1=NCCN1` [JM2-131-2, (E)-2-(2-(2-chloro-6-(trifluoromethyl)benzylidene)hydrazinyl)-4,5-dihydro-1H-imidazole hydrochloride], for which the viability at 2.5 µM runs as follows: under setting [1], 62.6%; under setting [2], 198%.

Turning to `CC(C)c1cccc(Cl)c1/C=N/NC(=N)N` [JM3-89-2, (E)-2-(2-chloro-6-isopropylbenzylidene)hydrazine-1-carboximidamide acetate], the viability at 2.5 µM worked out at 22% under setting [1] and 96% under setting [2].

Regarding `Cc1cc(=O)nc(N/N=C/c2c(F)cccc2Cl)[nH]1` [JM2-203-2, (E)-2-(2-(2-chloro-6-fluorobenzylidene)hydrazinyl)-6-methylpyrimidin-4(1H)-one], the viability at 2.5 µM was determined as 19.7% under setting [1] and 103% under setting [2].

In the case of `O=[N+]([O-])c1cccc(Br)c1/C=N/NC1=NCCN1` [JM2-109-2, (E)-2-(2-(2-bromo-6-nitrobenzylidene)hydrazinyl)-4,5-dihydro-1H-imidazole hydrochloride], the viability at 2.5 µM by setting is: under setting [1], 50.2%; under setting [2], 108%.

Turning to `Cc1cccc(C)c1/C=N/NC1=NCCN1` [JM2-85-2, (E)-2-(2-(2,6-dimethylbenzylidene)hydrazinyl)-4,5-dihydro-1H-imidazole hydrochloride], the viability at 2.5 µM was determined as 62.3% under setting [1] and 145% under setting [2].

In the case of `Cc1cc(=O)nc(N/N=C/c2ccccc2Cl)[nH]1` [JM3-215-3, (E)-2-(2-(2-chlorobenzylidene)hydrazinyl)-6-methylpyrimidin-4(1H)-one], the viability at 2.5 µM under setting [1] is 21% and the viability at 2.5 µM under setting [2] was 110%.

`NC(=O)N/N=C/c1ccccc1Cl` [JM3-223-2, (E)-2-(2-chlorobenzylidene)hydrazine-1-carboxamide hydrochloride]: the viability at 2.5 µM under setting [1] stood at 28% and the viability at 2.5 µM under setting [2] turned out to be 118%.

Consider `Clc1cccc(/C=N/NC2=NCCCN2)c1Cl` [JM3-153-2, (E)-2-(2-(2,3-dichlorobenzylidene)hydrazinyl)-1,4,5,6-tetrahydropyrimidine hydrochloride], for which the viability at 2.5 µM reads like this: under setting [1], 36%; under setting [2], 155%.

For the molecule `CCCCNC(=N)N/N=C/c1c(Cl)cccc1Cl` [JM3-161-2, (E)-N-butyl-2-(2,6-dichlorobenzylidene)hydrazine-1-carboximidamide hydroiodide], the viability at 2.5 µM reads like this: under setting [1], 14.7%; under setting [2], 63%.

For the molecule `N=C(N)N/N=C/c1c(Br)cccc1[N+](=O)[O-]` [JM1-175-2, (E)-2-(2-bromo-6-nitrobenzylidene)hydrazine-1-carboximidamide acetate], the viability at 2.5 µM runs as follows: under setting [1], 44.9%; under setting [2], 65%.

Turning to `Clc1cccc(Cl)c1Cc1ncc[nH]1` [JM3-131-2, 2-(2,6-dichlorobenzyl)-1H-imidazole], the viability at 2.5 µM under setting [1] was found to be 22.8% and the viability at 2.5 µM under setting [2] is 100%.

On to `O=C(/C=C/c1ccccc1)NC(NC(=S)Nc1cccc2cccnc12)C(Cl)(Cl)Cl` (stereo not shown) [Salubrinal, reference compound], for which, where the note is “Hela cells, Salubrinal 25 μM + tunicamycin, WST-8 48 hours”, the “% Cell Survival Cmpd + Tuni” value is recorded as 38.46%. Further, the viability at 2.5 µM is, setting by setting: under setting [1], 23.8%; under setting [2], 103%. Moreover, the viability at 25 µM (Homo sapiens, HeLa, 48 h, read-out: Compounds ERS (vs Tn), % cell survival (compound)/% cell survival (tunicamycin), Salubrinal 25 μM) amounted to 116%.

In the case of `N=C(N)N/N=C/c1c(Cl)cc(-c2ccccc2)cc1Cl` [JM3-67-2, (E)-2-((3,5-dichloro-[1,1′-biphenyl]-4-yl)methylene)hydrazine-1-carboximidamide], the viability at 2.5 µM reads like this: under setting [1], 23.3%; under setting [2], 102%.

For the molecule `Clc1cccc(Cl)c1/C=N/NC1=NCCN1` [JM2-83-2, (E)-2-(2-(2,6-dichlorobenzylidene)hydrazinyl)-4,5-dihydro-1H-imidazole hydrochloride], the viability at 2.5 µM under setting [1] stood at 53.8% and the viability at 2.5 µM under setting [2] turned out to be 125%.
